# Test results published in patent US11040987B2 (TenNor Therapeutics Limited, priority 2019, dated 2021).
# Read-outs that look alike come from different tables or passages of the source.
# Legend:
# AmpC_PA = target: T1, AmpC_PA (Pseudomonas aeruginosa, UniProt P24735); test: β-lactamase inhibition, spectrophotometric assay of nitrocefin hydrolysis; format: biochemical, P. aeruginosa
# T1 construct: made in house
# From the text: (§1) Hydrolytic inactivation of the β-lactam antibiotics by β-lactamases is the most widespread drug resistant mechanism and the most challenge clinically among Gram-negative bacterial pathogens. Based on the amino acid sequences, the β-lactamases are grouped into four classes (Ambler classification), of which A, C and D are serine hydrolases and B encompasses metallo-β-lactamases. The IC50 of selected derivatives disclosed herein (identified with reference to example number) plus six reference β-lactam or β-lactamase inhibitors were determined against 7 representative β-lactamases of various classes in a standard spectrophotometric assay of nitrocefin hydrolysis. The assay is performed in 384-well plate. The seven recombinant β-lactamases AmpC_AB (from A. baumannii), AmpC_PA (from P. aeruginosa), KPC-2, NDM-1, IMP-1, VIM-1 and OXA 24/40) are expressed and purified. The reaction buffer for class A, C and D enzymes is 100 mM Na2HPO4—KH2PO4 (pH 7.1) plus 0.005% Tween-20, and for class B enzymes 10 μM ZnSO4 is added. […] The 50 μL of reaction solution composed of 2 pM of β-lactamase, 200 μM of nitrocefin and series of 3-fold dilutions of test or control compounds are added by Cybio SELMA system into 384-plate and incubated in dark at 25° C. for 2 hours. The OD490 is read in MC SpectraMax Plus384 plate reader.
# NDM-1 = target: T2, NDM-1 (Klebsiella pneumoniae, UniProt C7C422); test: as above; format: biochemical
# T2 construct: made in house
# T2 sequence (C7C422 29-270, looked up, species assumed): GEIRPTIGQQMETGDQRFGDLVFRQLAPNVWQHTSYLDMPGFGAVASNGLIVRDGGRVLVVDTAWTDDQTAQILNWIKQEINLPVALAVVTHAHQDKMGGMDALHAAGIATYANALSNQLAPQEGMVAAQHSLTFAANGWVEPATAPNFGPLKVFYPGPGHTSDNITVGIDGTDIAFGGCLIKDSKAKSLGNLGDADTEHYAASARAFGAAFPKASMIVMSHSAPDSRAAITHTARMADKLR
# From the text: as §1
# IMP-1 = target: T3, IMP-1 (Serratia marcescens, UniProt P52699); test: as above; format: biochemical
# T3 construct: made in house
# T3 sequence (P52699 19-246, looked up, species assumed): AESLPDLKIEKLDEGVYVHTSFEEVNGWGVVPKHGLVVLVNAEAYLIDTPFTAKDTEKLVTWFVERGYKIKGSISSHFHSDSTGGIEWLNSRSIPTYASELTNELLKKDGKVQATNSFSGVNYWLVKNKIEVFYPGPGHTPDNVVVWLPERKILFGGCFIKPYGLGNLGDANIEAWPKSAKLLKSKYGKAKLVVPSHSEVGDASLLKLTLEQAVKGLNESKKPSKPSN
# From the text: as §1
# OXA 24/40 = target: T4, OXA 24/40 (Acinetobacter baumannii, UniProt Q8RLA6); test: as above; format: biochemical
# T4 construct: made in house
# T4 sequence (Q8RLA6 22-275): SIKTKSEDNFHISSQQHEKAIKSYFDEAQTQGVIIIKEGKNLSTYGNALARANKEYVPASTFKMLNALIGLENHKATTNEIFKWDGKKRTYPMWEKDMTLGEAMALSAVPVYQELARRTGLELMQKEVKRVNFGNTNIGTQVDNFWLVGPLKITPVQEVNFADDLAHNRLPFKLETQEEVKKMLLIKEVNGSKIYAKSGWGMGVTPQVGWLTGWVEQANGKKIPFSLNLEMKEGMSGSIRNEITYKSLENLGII
# From the text: as §1
# AmpC_AB = AmpC_AB (Acinetobacter baumannii, UniProt Q6DRA1); test: as above; format: biochemical
# From the text: as §1
# KPC-2 = target: T5, KPC-2 (Klebsiella pneumoniae, UniProt Q9F663); test: as above; format: biochemical
# T5 construct: made in house
# T5 sequence (Q9F663 25-293, looked up, species assumed): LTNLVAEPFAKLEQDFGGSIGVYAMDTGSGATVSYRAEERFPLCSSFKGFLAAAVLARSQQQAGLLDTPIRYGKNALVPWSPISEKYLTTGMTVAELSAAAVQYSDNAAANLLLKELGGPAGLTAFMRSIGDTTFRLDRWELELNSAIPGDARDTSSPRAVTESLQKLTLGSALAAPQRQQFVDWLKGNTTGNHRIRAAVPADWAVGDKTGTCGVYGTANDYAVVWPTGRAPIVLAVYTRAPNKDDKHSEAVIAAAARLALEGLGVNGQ
# From the text: as §1
# VIM-1 = target: T6, VIM-1 (Pseudomonas aeruginosa, UniProt A0A0F7KYQ8); test: as above; format: biochemical
# T6 construct: made in house
# From the text: as §1
# A.b TNP 41708 = test: MIC against A. baumannii clinical isolates, alone and in combination with antibiotics; format: cell-based; settings: for MIC: Acinetobacter baumannii, TNP41708, read-out: MIC A.b TNP 41708
# Experimental: (§2) Minimum inhibitory concentration (MIC) is determined by a broth microdilution method according to the recommendation of the Clinical and Laboratory Standards Institute (CLSI) with minor modification. […] Strains of an ESKAPE panel (E. faecium ATCC 700221, S. aureus ATCC 29213, K. pneumoniae ATCC 43816, A. baumannii ATCC 19606, P. aeruginosa ATCC 27853 and Escherichia coli ATCC 25922) were obtained originally from the American Type Culture Collection (ATCC) and used for MIC determinations of compounds. The bacteria inoculum in the test is […].
# P. aeruginosa ATCC 27853 = test: MIC determination, broth microdilution, ESKAPE panel; format: cell-based; settings: Pseudomonas aeruginosa
# Experimental: as §2
# A. baumannii ATCC 19606 = test: as above; format: cell-based; settings: Acinetobacter baumannii
# Experimental: as §2
# E. faecium ATCC 700221 = test: as above; format: cell-based; settings: Enterococcus faecium
# Experimental: as §2
# S. aureus ATCC 29213 = test: as above; format: cell-based; settings: Staphylococcus aureus
# Experimental: as §2
# K. pneumoniae ATCC 43816 = test: as above; format: cell-based; settings: Klebsiella pneumoniae
# Experimental: as §2
# [1] = tested on: Escherichia coli ATCC 25922; test: as above; format: cell-based
# Experimental: as §2
# A.b TNP 41704 = test: MIC against A. baumannii clinical isolates, alone and in combination with antibiotics; format: cell-based; settings: for MIC: Acinetobacter baumannii
# A.b TNP 41709 = test: as above; format: cell-based; settings: for MIC: Acinetobacter baumannii
# [2] = class B β-lactamase, 10 μM ZnSO4, 200 μM nitrocefin, 25° C., 2 hours, read-out: IC50 NDM-1
# [3] = class B β-lactamase, 10 μM ZnSO4, 200 μM nitrocefin, 25° C., 2 hours, read-out: IC50 IMP-1
# [4] = Class C β-lactamase, 200 μM nitrocefin, 25° C., 2 hours, read-out: IC50 AmpC_AB
# [5] = class A β-lactamase, 200 μM nitrocefin, 25° C., 2 hours, read-out: IC50 KPC-2
# [6] = class B β-lactamase, 10 μM ZnSO4, 200 μM nitrocefin, 25° C., 2 hours, read-out: IC50 VIM-1
# T1 sequence (P24735 27-397): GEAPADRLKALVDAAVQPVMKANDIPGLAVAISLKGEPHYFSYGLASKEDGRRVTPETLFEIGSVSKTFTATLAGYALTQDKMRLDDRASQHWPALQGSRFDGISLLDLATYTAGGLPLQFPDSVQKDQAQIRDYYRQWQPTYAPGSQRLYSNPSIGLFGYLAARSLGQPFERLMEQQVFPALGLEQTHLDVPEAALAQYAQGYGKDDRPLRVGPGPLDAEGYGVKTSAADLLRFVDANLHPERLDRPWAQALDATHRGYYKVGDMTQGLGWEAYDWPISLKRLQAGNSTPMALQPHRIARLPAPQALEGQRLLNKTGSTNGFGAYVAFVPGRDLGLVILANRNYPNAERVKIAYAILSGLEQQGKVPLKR
Structure (SMILES),IC50 (AmpC_PA) [µM],IC50 (NDM-1; [2]) [µM],IC50 (IMP-1; [3]) [µM],IC50 (OXA 24/40) [µM],IC50 (AmpC_AB; [4]) [µM],IC50 (KPC-2; [5]) [µM],IC50 (VIM-1; [6]) [µM],IC50 (AmpC_AB) [µM],also measured
"CN(/N=C/[C@@]1(C)[C@H](C(=O)O)N2C(=O)C[C@H]2S1(=O)=O)C(=O)c1ccc(O)c(O)c1 [Example 7, (2S,3R,5R)-3-((E)-(2-(3,4-dihydroxybenzoyl)-2-methylhydrazono)methyl)-3-methyl-7-oxo-4-thia-1-azabicyclo[3.2.0]heptane-2-carboxylic acid 4,4-dioxide]",1.52,> 200,> 200,6.03,0.596,> 200,58.2,,activity against VIM-1 of class B (in words) (VIM-1; text summary of Table 4): weak activity
"C[C@]1(COC(=O)NNC(=O)c2ccc(O)c(O)c2Cl)[C@H](C(=O)O)N2C(=O)C[C@H]2S1(=O)=O [Example 70, (2S,3R,5R)-3-(((2-(2-chloro-3,4-dihydroxybenzoyl)hydrazinecarbonyl)oxy)methyl)-3-methyl-7-oxo-4-thia-1-azabicyclo[3.2.0]heptane-2-carboxylic acid 4,4-dioxide]",9.14,> 200,> 200,29.6,7.18,140,> 200,,"MIC (A.b TNP 41708): 16 µg/mL; MIC A.b TNP 41708 (A.b TNP 41708; Compounds + meropenem (1:1)): 8 µg/mL; MIC A.b TNP 41708 (A.b TNP 41708; Compounds + sulbactam (1:1)): 8 µg/mL; MIC (P. aeruginosa ATCC 27853; ATCC27853, iron-depleted cation-adjusted Mueller-Hinton broth, 2,2-dipyridyl 160 μM, 37° C., 18-20 hours, read-out: MIC P. aeruginosa ATCC 27853): > 128 µg/mL; MIC (A. baumannii ATCC 19606; ATCC19606, iron-depleted cation-adjusted Mueller-Hinton broth, 2,2-dipyridyl 160 μM, 37° C., 18-20 hours, read-out: MIC A. baumannii ATCC 19606): 1 µg/mL; MIC (E. faecium ATCC 700221; ATCC700221, iron-depleted cation-adjusted Mueller-Hinton broth, 2,2-dipyridyl 160 μM, 37° C., 18-20 hours, read-out: MIC E. faecium ATCC 700221): > 128 µg/mL; MIC (S. aureus ATCC 29213; ATCC29213, iron-depleted cation-adjusted Mueller-Hinton broth, 2,2-dipyridyl 160 μM, 37° C., 18-20 hours, read-out: MIC S. aureus ATCC 29213): > 128 µg/mL; MIC (K. pneumoniae ATCC 43816; ATCC43816, iron-depleted cation-adjusted Mueller-Hinton broth, 2,2-dipyridyl 160 μM, 37° C., 18-20 hours, read-out: MIC K. pneumoniae ATCC 43816): > 128 µg/mL; MIC ([1]; ATCC25922, iron-depleted cation-adjusted Mueller-Hinton broth, 2,2-dipyridyl 160 μM, 37° C., 18-20 hours, read-out: MIC E. coli ATCC 25922): > 128 µg/mL; MIC (A.b TNP 41704; TNP41704, Compounds alone, read-out: MIC A.b TNP 41704): 8 µg/mL; MIC A.b TNP 41704 (A.b TNP 41704; Compounds + meropenem (1:1)): 8 µg/mL; MIC A.b TNP 41704 (A.b TNP 41704; Compounds + sulbactam (1:1)): 4 µg/mL; MIC (A.b TNP 41709; TNP41709, Compounds alone, read-out: MIC A.b TNP 41709): 8 µg/mL; MIC A.b TNP 41709 (A.b TNP 41709; Compounds + meropenem (1:1)): 4 µg/mL; MIC A.b TNP 41709 (A.b TNP 41709; Compounds + sulbactam (1:1)): 4 µg/mL; activity against KPC-2 of class A (in words) (KPC-2; text summary of Table 4): weak activity"
"C[C@]1(/C=N/NC(=O)c2ccc(O)c(O)c2Cl)[C@H](C(=O)O)N2C(=O)C[C@H]2S1(=O)=O [Example 23, (2S,3R,5R)-3-((E)-(2-(2-chloro-3,4-dihydroxybenzoyl)hydrazono)methyl)-3-methyl-7-oxo-4-thia-1-azabicyclo[3.2.0]heptane-2-carboxylic acid 4,4-dioxide]",2.45,> 200,> 200,3.18,0.718,> 200,> 200,,
"CC1(C)[C@H](C(=O)O)N2C(=O)C[C@H]2S1(=O)=O [Sulbactam, reference compound]",10.3,,,> 200,,,,10.3,"MIC (A.b TNP 41708): 32 µg/mL; MIC (P. aeruginosa ATCC 27853; ATCC27853, read-out: MIC P. aeruginosa ATCC 27853): > 128 µg/mL; MIC (A. baumannii ATCC 19606; ATCC19606, read-out: MIC A. baumannii ATCC 19606): 0.5 µg/mL; MIC (E. faecium ATCC 700221; ATCC700221, read-out: MIC E. faecium ATCC 700221): > 128 µg/mL; MIC (S. aureus ATCC 29213; ATCC29213, read-out: MIC S. aureus ATCC 29213): > 128 µg/mL; MIC (K. pneumoniae ATCC 43816; ATCC43816, read-out: MIC K. pneumoniae ATCC 43816): 64 µg/mL; MIC ([1]; ATCC25922, read-out: MIC E. coli ATCC 25922): 32 µg/mL; MIC (A.b TNP 41704; TNP41704, read-out: MIC A.b TNP 41704): 8 µg/mL; MIC (A.b TNP 41709; TNP41709, read-out: MIC A.b TNP 41709): 32 µg/mL; IC50 (NDM-1): > 200 µM; IC50 (IMP-1): > 200 µM; IC50 (KPC-2): 53.4 µM; IC50 (VIM-1): > 200 µM"
"CN(/N=C/[C@@]1(C)[C@H](C(=O)O)N2C(=O)C[C@H]2S1(=O)=O)C(=O)c1ccc(O)c(O)c1Cl [Example 3, (2S,3R,5R)-3-((E)-(2-(2-chloro-3,4-dihydroxybenzoyl)-2-methylhydrazono)methyl)-3-methyl-7-oxo-4-thia-1-azabicyclo[3.2.0]heptane-2-carboxylic acid 4,4-dioxide]",2.42,> 200,> 200,2.3,0.72,> 200,> 200,,
"O=C(O)[C@H]1/C(=C/CO)O[C@@H]2CC(=O)N21 [Clavulanate, reference compound]",> 200,> 200,> 200,> 200,,> 200,> 200,> 200,
"C[C@]1(/C=N/NC(=O)c2cnccn2)[C@H](C(=O)O)N2C(=O)C[C@H]2S1(=O)=O [Example 19, (2S,3R,5R)-3-methyl-7-oxo-3-((E)-(2-(pyrazine-2-carbonyl)hydrazono)methyl)-4-thia-1-azabicyclo[3.2.0]heptane-2-carboxylic acid 4,4-dioxide]",3.68,> 200,> 200,2.49,5.76,> 200,> 200,,
"O=C(NNC(=O)[C@@H]1CC[C@@H]2CN1C(=O)N2OS(=O)(=O)O)[C@@H]1CCCNC1 [Zidebactam, reference compound]",,> 200,> 200,51,0.248,2.36,> 200,,
"C[C@]1(Cn2ccnn2)[C@H](C(=O)O)N2C(=O)C[C@H]2S1(=O)=O [Tazobactam, reference compound]",,> 200,> 200,123,,90.2,> 200,23.8,
"C[C@]1(COC(=O)NNC(=O)c2ccc(O)c(O)c2)[C@H](C(=O)O)N2C(=O)C[C@H]2S1(=O)=O [Example 69, (2S,3R,5R)-3-(((2-(3,4-dihydroxybenzoyl)hydrazinecarbonyl)oxy)methyl)-3-methyl-7-oxo-4-thia-1-azabicyclo[3.2.0]heptane-2-carboxylic acid 4,4-dioxide]",8.6,> 200,> 200,65.2,3.6,> 200,> 200,,
